Source: US20260071220A1, “CONJUGATE OF NUCLEOTIDE ANALOG-CONTAINING DOUBLE-STRANDED RNAI ANALOG” (BaseCure Therapeutics LLC, priority 2022, published 2026)

Legend:
Details in all cases: 24 h, positive control
HEK BLUE hTLR3 = assay: Cell activity detection (CellTiter-Glo) in hTLR3 cells; assay type: cell-based, human
Protocol: (§1) 1) The conjugate of the present invention was diluted to a concentration that was 20 times a final concentration, the diluted conjugate was mixed with RNAiMAX-OPTI MEM (RNAiMAX:OPTI MEM=3:47) at a ratio of 1:1 and incubated for 15 min at room temperature.
(§2) 2) 10 μL of incubated conjugate of the present invention was added into a corresponding cell plate, with 10 concentrations in total, a maximum concentration being 200 nM, and double duplicated wells for each concentration.
(§3) 4) 90 μL of cells were seeded into a 96-well plate with the conjugate at the density of 50,000 cells/well.
(§4) 5) The conjugate of the present invention and the cells were co-incubated for 24 h in an incubator under the conditions of 37° C. and 5% CO2.
(§5) 8) Cell activity detection: the operation was carried out according to the method in the Celltiter-Glo specification, and a chemiluminescence signals (RLU) were detected using the multifunctional microplate reader Flexstation III.
(§6) Compound activity: the OD650 values were analyzed using GraphPad Prism software, and a dose effect curve of the compound was fit, and the EC50 value of the compound was calculated. Cell activity detection: the calculation formula of cell activity % was as follows. The cell activity % value was analyzed using GraphPadPrism software, the dose effect curve of the compound was fit, and the CC50 value of the compound on cell was calculated.

hTLR3 = molecular target: T1, hTLR3 (Homo sapiens, UniProt O15455); assay: Agonistic activity on hTLR3 cells (HEK BLUE, QUANTI-Blue OD650); assay type: cell-based
T1 construct: host or cells: HEK BLUE hTLR3 (HEK293-derived SEAP reporter line)
T1 sequence (O15455 24-904): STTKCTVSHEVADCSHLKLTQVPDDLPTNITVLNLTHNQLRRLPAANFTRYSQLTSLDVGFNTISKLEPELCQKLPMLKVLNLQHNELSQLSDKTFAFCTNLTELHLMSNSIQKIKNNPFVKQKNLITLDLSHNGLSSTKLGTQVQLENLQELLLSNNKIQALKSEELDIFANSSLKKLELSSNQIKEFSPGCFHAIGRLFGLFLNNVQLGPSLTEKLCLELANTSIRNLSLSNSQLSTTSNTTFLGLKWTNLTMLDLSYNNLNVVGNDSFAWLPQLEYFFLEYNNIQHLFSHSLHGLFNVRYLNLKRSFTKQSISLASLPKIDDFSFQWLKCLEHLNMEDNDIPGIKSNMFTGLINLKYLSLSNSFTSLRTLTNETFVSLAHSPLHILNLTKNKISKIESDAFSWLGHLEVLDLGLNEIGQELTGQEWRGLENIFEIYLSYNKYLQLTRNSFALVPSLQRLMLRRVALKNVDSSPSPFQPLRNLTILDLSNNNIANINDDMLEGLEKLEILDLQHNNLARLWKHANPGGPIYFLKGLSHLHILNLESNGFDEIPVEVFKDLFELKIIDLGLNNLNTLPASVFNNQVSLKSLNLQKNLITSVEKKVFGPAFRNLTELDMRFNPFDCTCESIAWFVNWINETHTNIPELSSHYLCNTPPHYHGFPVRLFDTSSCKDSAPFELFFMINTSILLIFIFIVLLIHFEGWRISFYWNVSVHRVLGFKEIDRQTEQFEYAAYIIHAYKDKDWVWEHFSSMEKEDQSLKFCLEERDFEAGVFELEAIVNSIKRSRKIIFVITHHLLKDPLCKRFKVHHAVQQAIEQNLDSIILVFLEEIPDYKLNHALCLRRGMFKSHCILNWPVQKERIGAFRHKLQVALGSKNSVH
Protocol: as §1, §2
10 μL of 0.5 μM BLOCK-iT™ Alexa Fluor® Red Fluorescent Control was added into 2 transfection positive control wells.
as §3, §4
7) Compound activity detection: 20 μL of cell supernatant was taken from each well and added into an experimental plate containing 180 μL of QUANTI-Blue™ reagent and then incubated for 1 h at 37° C., followed by detecting an absorbance values at 650 nm (OD650) using the multifunctional microplate reader Flexstation III.
as §6

HEK BLUE hTLR8 = assay: Cell activity detection (CellTiter-Glo) in hTLR8 cells; assay type: cell-based, human
Protocol: as §1, §2, §3, §4, §5, §6

HEK BLUE hTLR7 = assay: Cell activity detection (CellTiter-Glo) in hTLR7 cells; assay type: cell-based, human
Protocol: as §1, §2, §3, §4, §5, §6

Compound	CC50 (HEK BLUE hTLR3)	EC50 (hTLR3)	CC50 (HEK BLUE hTLR8)	CC50 (HEK BLUE hTLR7)
Poly (I:C) HMW [Poly(I:C) HMW, reference compound]	>2 µg/mL	0.05943 µg/mL		
CCOCc1nc2c(N)nc3ccccc3c2n1CC(C)(C)O [Conjugate R848, R848, reference compound]			>10 µg/mL	>10 µg/mL
